Series [1] relates to DENV-2 16681 strain. In words: DENV-2 antiviral assay (eGFP-labeled virus in Vero cells). The series is classed as cell-based, Dengue virus. As to conditions: DENV-2 16681 eGFP, MOI 0.5, 3 days. As for the experimental part:
The antiviral activity of all the compounds of the invention was tested the against DENV-2 16681 strain which was labeled with enhanced green fluorescent protein (eGPF). The culture medium consists of minimal essential medium supplemented with 2% of heat-inactivated fetal calf serum, 0.04% gentamycin (50 mg/mL) and 2 mM of L-glutamine. Vero cells, obtained from ECACC, were suspended in culture medium and 25 μL was added to 384-well plates (2500 cells/well), which already contain the antiviral compounds. Typically, these plates contain a 5-fold serial dilution of 9 dilution steps of the test compound at 200 times the final concentration in 100% DMSO (200 nL). […] Finally, each plate contains wells which are assigned as virus controls (containing cells and virus in the absence of compound), cell controls (containing cells in the absence of virus and compound) and medium controls (containing medium in the absence of cells, virus and compounds). To the wells assigned as medium control, 25 μL of culture medium was added instead of Vero cells. Once the cells were added to the plates, the plates were incubated for 30 minutes at room temperature to allow the cells to distribute evenly within the wells. Next, the plates were incubated in a fully humidified incubator (37° C., 5% CO2) until the next day. Then, DENV-2 strain 16681, labeled with eGFP, was added at a multiplicity of infection (MOI) of 0.5. Therefore, 15 μL of virus suspension was added to all the wells containing test compound and to the wells assigned as virus control. In parallel, 15 μL of culture medium was added to the medium and cell controls. Next, the plates were incubated for 3 days in a fully humidified incubator (37° C., 5% CO2). At the day of the read out, the eGFP fluorescence was measured using an automated fluorescence microscope at 488 nm (blue laser). Using an in-house LIMS system, inhibition dose response curves for each compound were calculated and the half maximal effective concentration (EC50) was determined. Therefore, the percent inhibition (I) for every test concentration is calculated using the following formula: I=100*(ST-SCC)/(SVC-SCC), ST, SCC and SVC are the amount of eGFP signal in the test compound, cell control and virus control wells, respectively. The EC50 represents the concentration of a compound at which the virus replication is inhibited with 50%, as measured by a 50% reduction of the eGFP fluorescent intensity compared to the virus control. The EC50 is calculated using linear interpolation (Table 1).

Series [2] is described as follows: in vitro. As to conditions: African green monkey.
A short description of series [3]: in vitro. In kind it is cell-based. As to conditions: African green monkey. As for the experimental part: (§1) Tetravalent reverse transcriptase quantitative-PCR (RT-qPCR) assay The antiviral activity of the compounds of the invention was tested against DENV-1 strain TC974#666 (NCPV), DENV-2 strain 16681, DENV-3 strain H87 (NCPV) and DENV-4 strain H241 (NCPV) in a RT-qPCR assay. Therefore, Vero cells were infected with either DENV-1, or -2, or -3, or -4 in the presence or absence of test compounds. At day 3 post-infection, the cells were lysed and cell lysates were used to prepare cDNA of both a viral target (the 3′UTR of DENV; Table 2) and a cellular reference gene (β-actin, Table 2). Subsequently, a duplex real time PCR was performed on a Lightcycler480 instrument. The generated Cp value is inversely proportional to the amount of RNA expression of these targets. Inhibition of DENV replication by a test compound results in a shift of Cp's for the 3′UTR gene. On the other hand, if a test compound is toxic to the cells, a similar effect on β-actin expression will be observed. The comparative ΔΔCp method is used to calculate EC50, which is based on the relative gene expression of the target gene (3′UTR) normalized with the cellular housekeeping gene (β-actin). In addition, CC50 values are determined based on the Cp values acquired for the housekeeping gene β-actin.
(§2) The culture medium consisted of minimal essential medium supplemented with 2% of heat-inactivated fetal calf serum, 0.04% gentamycin (50mg/mL) and 2 mM of L-glutamine. Vero cells, obtained from ECACC, were suspended in culture medium and 75 μL/well was added in 96-well plates (10000 cells/well), which already contain the antiviral compounds. […] In addition, each plate contains wells which are assigned as virus controls (containing cells and virus in the absence of compound) and cell controls (containing cells in the absence of virus and compound). Once the cells were added in the plates, the plates were incubated in a fully humidified incubator (37° C., 5% CO2) until the next day. Dengue viruses serotype-1, 2, 3 and 4 were diluted in order to obtain a Cp of ˜22-24 in the assay. Therefore, 25 μL of virus suspension was added to all the wells containing test compound and to the wells assigned as virus control. In parallel, 25 μL of culture medium was added to the cell controls. Next, the plates were incubated for 3 days in a fully humidified incubator (37° C., 5% CO2). After 3 days, the supernatant was removed from the wells and the cells were washed twice with ice-cold PBS (˜100 μL). The cell pellets within the 96-well plates were stored at −80° C. for at least 1 day. Next, RNA was extracted using the Cells-to-CT™ lysis kit, according to the manufacturer's guideline (Life Technologies). The cell lysates can be stored at −80° C. or immediately used in the reverse transcription step.
(§3) Using the LightCycler software and an in-house LIMS system, dose response curves for each compound were calculated and the half maximal effective concentration (EC50) and the half maximal cytotoxic concentration (CC50) were determined (Tables 5-8).

For series [4], the system named is DENV-4 strain H241. In words: Tetravalent RT-qPCR assay, serotype 4. In kind it is cell-based, Dengue virus. As to conditions: Dengue virus, DENV4, Vero, 72 h, RT-qPCR serotype 4 H241, Protocol A, Vero cells, day 3; read-out: EC50. As for the experimental part:
as §1, §2
(§4) In preparation of the reverse transcription step, mix A (table 3A) was prepared and 7.57 μL/well was dispensed in a 96-well plate. After addition of 5 μL of the cell lysates, a five minute denaturation step at 75° C. was performed (table 3B). Afterwards, 7.43 μL of mix B was added (table 3C) and the reverse transcription step was initiated (table 3D) to generate cDNA.
(§5) Finally, a RT-qPCR mix was prepared, mix C (table 4A), and 22.02 μL/well was dispensed in 96-well LightCycler qPCR plates to which 3μL of cDNA was added and the qPCR was performed according to the conditions in table 4B on a LightCycler 480.
as §3
(Quantitative PCR measures a nucleic acid by following its amplification.)

The test system of series [5] is DENV-1 strain TC974#666. In words: Tetravalent RT-qPCR assay, serotype 1. In kind it is cell-based, Dengue virus. The conditions noted are these: Dengue virus, DENV1, Vero, 72 h, RT-qPCR serotype 1 TC974#666, Protocol A, Vero cells, day 3. As for the experimental part: as §1, §2, §4, §5, §3
Series [6] relates to DENV-3 strain H87. In words: Tetravalent RT-qPCR assay, serotype 3. The conditions noted are these: Dengue virus, DENV3, Vero, 72 h, RT-qPCR serotype 3 H87, Protocol A, Vero cells, day 3. In kind it is cell-based, Dengue virus. As for the experimental part:
as §1, §2, §4, §5, §3

Series [7] deals with DENV-2 strain 16681. In words: Tetravalent RT-qPCR assay, serotype 2. As to conditions: Dengue virus, DENV2, Vero, 72 h, RT-qPCR serotype 2 16681, Protocol A, Vero cells, day 3. The series is classed as cell-based, Dengue virus. As for the experimental part: as §1, §2, §4, §5, §3
For series [8], the system named is Vero cells. As to conditions: African green monkey.
Setting [9] is: Dengue virus, DENV2, Vero, 72 h.

In general, EC50 refers to the concentration giving half of the maximal effect. As a reminder, the melting point is the temperature of the solid-liquid transition. `COc1cc(NC(C(=O)N2CCc3ccc(C(F)(F)F)cc32)c2ccc(Cl)cc2OC)cc(OCCO)c1` (racemic) [Compound 1, 2-(4-chloro-2-methoxyphenyl)-2-((3-(2-hydroxyethoxy)-5-methoxyphenyl)amino)-1-(6-(trifluoromethyl)indolin-1-yl)ethanone]: the melting point worked out at 194 °C. The same compound came in with a 50% effective concentration (EC50) in series [1] (setting [9]) of 5.6 nM. Further, the CC50 in series [2] worked out at 13000 nM.
Take `COc1cc(NC(C(=O)N2CCc3ccc(OC(F)(F)F)cc32)c2ccc(Cl)cc2)cc(OCCO)c1` (racemic) [Compound 3, 2-(4-chlorophenyl)-2-((3-(2-hydroxyethoxy)-5-methoxyphenyl)amino)-1-(6-(trifluoromethoxy)indolin-1-yl)ethanone]: the melting point was 162 °C. The 50% effective concentration (EC50) in [1] (setting [9]) amounted to 5.5 nM. The CC50 in series [2] came out at 9500 nM.
The like results for `COc1cc(NC(C(=O)N2CCc3ccc(C(F)(F)F)cc32)c2ccc(Cl)cc2)cc(OCCO)c1` (racemic) [Compound 4, 2-(4-chlorophenyl)-2-((3-(2-hydroxyethoxy)-5-methoxyphenyl)amino)-1-(6-(trifluoromethyl)indolin-1-yl)ethanone] were, in that order, 160 °C, 6.7 nM and 9700 nM.
Taken in the same sequence, the figures for `COc1cc(NC(C(=O)N2CCc3ccc(OC(F)(F)F)cc32)c2ccc(Cl)cc2OC)cc(OCCO)c1` (racemic) [Compound 5, 2-(4-chloro-2-methoxyphenyl)-2-((3-(2-hydroxyethoxy)-5-methoxyphenyl)amino)-1-(6-(trifluoromethoxy)indolin-1-yl)ethanone] were 162 °C, 4.6 nM and 9300 nM.
Taken in the same sequence, the figures for `COc1cc(NC(C(=O)N2CCc3cc(OC)c(C(F)(F)F)cc32)c2ccc(Cl)cc2OC)cc(OCCO)c1` (racemic) [Compound 11, 2-(4-chloro-2-methoxyphenyl)-2-((3-(2-hydroxyethoxy)-5-methoxyphenyl)amino)-1-(5-methoxy-6-(trifluoromethyl)indolin-1-yl)ethanone] were 175 °C, 2.3 nM and 22000 nM.
`COc1cc(NC(C(=O)N2CCc3cc(F)c(C(F)(F)F)cc32)c2ccc(Cl)cc2)cc(OCCO)c1` (racemic) [Compound 12, 2-(4-chlorophenyl)-1-(5-fluoro-6-(trifluoromethyl)indolin-1-yl)-2-((3-(2-hydroxyethoxy)-5-methoxyphenyl)amino)ethanone] registered a melting point of 130 °C. Moreover, in [1] (setting [9]), the concentration giving a half-maximal response (EC50) was determined as 11 nM. The compound further displayed a CC50 in [2] of 11000 nM.
The like results for `COc1cc(NC(C(=O)N2CCc3cc(OC)c(OC(F)(F)F)cc32)c2ccc(Cl)cc2)cc(OCCO)c1` (racemic) [Compound 13, 2-(4-chlorophenyl)-2-((3-(2-hydroxyethoxy)-5-methoxyphenyl)amino)-1-(5-methoxy-6-(trifluoromethoxy)indolin-1-yl)ethanone] were, in that order, 165 °C, 4.9 nM and 13000 nM.
For `COc1cc(NC(C(=O)N2CCc3ccc(C(F)(F)F)cc32)c2ccc(Cl)cc2F)cc(OCCO)c1` (single isomer, unassigned) [Compound 2B, 2-(4-chloro-2-fluorophenyl)-2-((3-(2-hydroxyethoxy)-5-methoxyphenyl)amino)-1-(6-(trifluoromethyl)indolin-1-yl)ethanone], the EC50 was determined as 2.5 nM in [1]; 170 nM in series [4]; 2.4 nM in series [5]; 29 nM in series [6]; 3.2 nM in series [7]. The compound further gave a CC50 at 3 days in series [3] of 4800 nM. Besides, the CC50 in series [8] came out at 13000 nM.
As to `COc1cc(NC(C(=O)N2CCc3ccc(OC(F)(F)F)cc32)c2ccc(Cl)cc2OC)cc(OCCO)c1` (single isomer, unassigned) [Compound 5A, 2-(4-chloro-2-methoxyphenyl)-2-((3-(2-hydroxyethoxy)-5-methoxyphenyl)amino)-1-(6-(trifluoromethoxy)indolin-1-yl)ethanone], the EC50 in [1] amounted to 1.4 nM; in series [4], 210 nM; in series [5], 2.6 nM; in series [6] it was 20 nM; in series [7], 3 nM. This compound also came in with a CC50 at 3 days in series [3] of 4700 nM. In [2], this compound returned a CC50 of 9800 nM.
Turning to `COc1cc(NC(C(=O)N2CCc3ccc(OC(F)(F)F)cc32)c2ccc(Cl)cc2F)cc(OCCO)c1` (single isomer, unassigned) [Compound 6B, 2-(4-chloro-2-fluorophenyl)-2-((3-(2-hydroxyethoxy)-5-methoxyphenyl)amino)-1-(6-(trifluoromethoxy)indolin-1-yl)ethanone], the concentration giving a half-maximal response (EC50) in series [1] worked out at 2.5 nM; in series [4] it was 140 nM; in series [5] it was 3.1 nM; in series [6], 28 nM; in series [7], 2 nM. The same compound came in with a CC50 at 3 days in series [3] of 4800 nM. The CC50 in series [8] stood at 12000 nM.
